Values of other authors as cited in patent US20170209372A1, “A Method of Preparing Amorphous Solid Dispersion in Submicron Range by Co-Precipitation” (HOVIONE INTERNATIONAL LTD, priority 2014, published 2017).

Log P	Structure (SMILES)
4.4	CCC(C)n1ncn(-c2ccc(N3CCN(c4ccc(OCC5COC(Cn6cncn6)(c6ccc(Cl)cc6Cl)O5)cc4)CC3)cc2)c1=O (stereo not drawn) [Itraconazole]
~2.6	NC(=O)N1c2ccccc2C=Cc2ccccc21 [Carbamazepine]
~5.77	C(=C\c1ccccc1)/CN1CCN(C(c2ccccc2)c2ccccc2)CC1 [Cinnarizine]
